We go through two compounds from patent US20220112204A1, “SUBSTITUTED DIHYDROPYRANOPYRIMIDINE COMPOUNDS AS KRAS INHIBITORS” (ACCUTAR BIOTECHNOLOGY INC., priority 2020, published 2022).

A word on the IC50: it is the concentration at which inhibition is half-maximal. For orientation: GI50 means the concentration at which growth is held to half of that of the control.

Experiment [1] deals with phospho-ERK1/2 (Thr202/Tyr204) in NCI-H23 cells. As to the kind of experiment: pERK and ERK Western blot analysis, NCI-H23. The format is cell-based. The settings on record: Homo sapiens; NCI-H23, KRAS G12C, 4 hours. As to the method:
(§1) MIA PaCa-2 (ATCC), NCI-H358 (ATCC), NCI-H23 (ATCC), SW837 and A549 (ATCC) cells were plated in 24-well plates at 2×10^5cells/well in RPMI growth medium containing 10% FBS and 1× Penicillin Streptomycin. They were then incubated at 37° C. overnight. The following day, the test compound was administered to the cells by using 1000× compound stock solution prepared in DMSO at various concentrations. After administration of the compound, the cells were then incubated at 37° C. for 4 hours. Upon completion, the cells were washed with PBS and protein was collected in Laemmli sample buffer (1×; VWR International). Proteins in cell lysate were separated by SDS-PAGE and transferred to Odyssey nitrocellulose membranes (Licor) with iblot® dry blotting transfer system (ThermoFisher). Nonspecific binding was blocked by incubating membranes with Intercept Blocking Buffer (Licor) for 1 hour at room temperature with gentle shaking. The membranes were then incubated overnight at 4° C. with primary antibodies rabbit anti-phospho p44/42 MAPK (Erk1/2) (1:2,000, Cell Signaling, 4370) and mouse anti-p44/42 MAPK (Erk1/2) (1:1,000, Cell Signaling, 4696) diluted in Intercept Blocking Buffer containing 0.1% Tween 20. […] The bands were quantified using Image Studio™ Software (Licor).
(In western blotting, separated proteins are transferred to a membrane and probed.)

Experiment [2] concerns phospho-ERK1/2 (Thr202/Tyr204) in SW837 cells. Briefly: pERK and ERK Western blot analysis, SW837. It counts as cell-based. To be noted: Homo sapiens; SW837, KRAS G12C, 4 hours. How it is done:
as §1

The next experiment deals with MIA PaCa-2 cell line. Briefly: 3D cell growth assay (CellTiter-Glo), MIA PaCa-2. The settings on record: Homo sapiens, MIA PaCa-2, 144 h, 6 days, read-out: 3D growth inhibition GI50. The format is cell-based. As to the method: (§2) MIA PaCa-2 (ATCC), NCI-H358 (ATCC), NCI-H23 (ATCC), SW837 and A549 (ATCC) cells were plated in round bottom 96-well spheroid microplates (Corning, 4520) at 3000 cells/well in 90 ul of RPMI growth medium containing 10% FBS and 1% Penicillin Streptomycin. Cells were incubated at 37° C. overnight. The following day, the test compound was administered to the cells by using 10× compound stock solution prepared in growth medium at various concentrations. After administration of the compound, cells were then incubated at 37° C. for 6 days. Before CellTiter-Glo assay, the plates were equilibrated at room temperature for approximately 10 minutes. 100 ul of CellTiter-Glo® Reagent (Promega, G7573) was added to each well. The plates were then incubated at room temperature for 10 minutes and luminescence was recorded by EnSpire plate reader (PerkinElmer). Table 6 illustrates growth inhibition (G150) by exemplary compounds 1-10 of the present disclosure in a MIA PaCa-2 cell line 6 days after administration in 3D cell culture. A: >0.1 nM and <1 nM; B: >=1 nM and <10 nM; C: >=10 nM and <100 nM; D: >100 nM.
In general terms: Cellular ATP, detected with luciferase, serves as a proxy for viable cell number.

The test system of experiment [3] is phospho-ERK1/2 (Thr202/Tyr204) in MIA PaCa-2 cell line. As to the kind of experiment: pERK and ERK Western blot analysis, MIA PaCa-2. The format is cell-based. The settings on record: Homo sapiens. Put shortly: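 Cells were seeded at 2×10^5 cells/well in RPMI with 10% FBS and treated next day with compound from 1000× DMSO stocks for 4 h at 37° C. Lysates were immunoblotted for phospho-p44/42 and total Erk1/2 with infrared-dye secondaries, and bands were quantified by densitometry.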

The target of experiment [4] is T1, KRAS-G12C mutant (Homo sapiens, UniProt P01116, G12C). As to the kind of experiment: Gel shift assay (SDS-PAGE) for covalent modification of KRAS G12C. The format is binding. To be noted: 0.5 μM compound, 1 μM GDP-bound KRAS G12C, 25° C., 5 minutes, shift indicative of covalent cysteine conjugation. In outline:
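Compounds at 0.5 μM were incubated with 1 μM GDP-bound untagged KRAS G12C or wild type for 5 minutes at 25° C in Tris pH 7.5, NaCl, MgCl2, DTT buffer. Reactions were quenched in SDS loading buffer and run on 4%-20% SDS-PAGE with Coomassie stain. Band mobility shift was taken as covalent cysteine conjugation.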

Experiment [5] concerns phospho-ERK1/2 (Thr202/Tyr204) in NCI-H358 cells. As to the kind of experiment: pERK and ERK Western blot analysis, NCI-H358. The format is cell-based. To be noted: Homo sapiens; NCI-H358, KRAS G12C, 4 hours. As to the method:
as §1

The test system of a further experiment is NCI-H23 cells. As to the kind of experiment: 3D cell growth assay (CellTiter-Glo), NCI-H23. The format is cell-based. The settings on record: Homo sapiens, 144 h, NCI-H23, KRAS G12C, 6 days, read-out: 3D growth inhibition GI50. How it is done:
as §2

A further experiment concerns SW837 cells. As to the kind of experiment: 3D cell growth assay (CellTiter-Glo), SW837. The format is cell-based. To be noted: Homo sapiens, 144 h, SW837, KRAS G12C, 6 days, read-out: 3D growth inhibition GI50. How it is done: as §2
The next experiment relates to A549 cells. Briefly: 3D cell growth assay (CellTiter-Glo), A549. The settings on record: Homo sapiens, 144 h, A549, KRAS G12S, 6 days, read-out: 3D growth inhibition GI50. It counts as cell-based. As to the method: as §2
The next experiment has as its system NCI-H358 cells. As to the kind of experiment: 3D cell growth assay (CellTiter-Glo), NCI-H358. It counts as cell-based. The settings on record: Homo sapiens, 144 h, NCI-H358, KRAS G12C, 6 days, read-out: 3D growth inhibition GI50. As to the method: as §2
The test system of experiment [6] is phospho-ERK1/2 (Thr202/Tyr204) in A549 cells. As to the kind of experiment: pERK and ERK Western blot analysis, A549. To be noted: Homo sapiens; A549, KRAS G12S, 4 hours. It counts as cell-based. As to the method: as §1
Experiment [7] has as its target T1, KRAS-G12C mutant. As to the kind of experiment: TR-FRET assay of SOS1-assisted KRAS GDP/GTP exchange. The format is biochemical. Put shortly:
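His-tagged GDP-KRAS-G12C (40 nM) preincubated 1 h at 4° C with 8 nM Tb-anti-His in Tris pH 7.5, 1 mM MgCl2, 2% DMSO; compounds added, then BODIPY-GTP (200 nM) and SOS-1 (1 μM) to start exchange. TR-FRET 520/620 nm ratio, SOS-free background subtracted; % inhibition versus DMSO, IC50 by variable-slope nonlinear regression.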
(In TR-FRET formats the signal depends on donor and acceptor labels being close together.)

[8] abbreviates: MIA PaCa-2 cell line, 3D cell culture.
The mark [9] stands for this setting: MIA PaCa-2, MiaPaCa2, KRAS G12C, 4 hours, read-out: pERK IC50.
The mark [10] stands for this setting: MIA PaCa-2 cell line, 4 hours after incubation, read-out: 2D pERK IC50.

Read-outs that look alike come from different tables or passages of the source.

`C=C(F)C(=O)N1CCN(c2nc(OCC34CCCN3CCC4)nc3c2CO[C@H](c2cccc4cccc(Cl)c24)C3)C[C@@H]1CC#N` (single isomer, unassigned) [Compound 55]: the IC50 in [1] was 6.4 nM; in experiment [2] it was 5.9 nM; in experiment [3] (setting [9]), 10.1 nM; in experiment [3] (setting [10]), 1 to 10 nM; in experiment [5], 12 nM; in [6], more than 30000 nM. Moreover, the midpoint of inhibition on KRAS-G12C mutant [7], the IC50, lay at 22 nM. In addition, the GI50 was 0.1 to 1 nM in the experiment with MIA PaCa-2 cell line (setting [8]); 0.8 nM in the experiment on MIA PaCa-2 cell line (MiaPaCa2, KRAS G12C, 3D); 8.4 nM in the experiment on NCI-H23 cells; 8.6 nM with SW837 cells; more than 300 nM with A549 cells; 0.7 nM in the experiment with NCI-H358 cells. Moreover, the “KRAS-G12C molecular weight shift” value on KRAS-G12C mutant [4] was “Yes”.
For the compound `C=C(F)C(=O)N1CCN(c2nc(OC[C@@]34CCCN3C[C@H](F)C4)nc3c2CO[C@H](c2cccc4cccc(Cl)c24)C3)C[C@@H]1CC#N` [Compound 64, 2-((S)-4-((S)-7-(8-chloronaphthalen-1-yl)-2-(((2R,7aS)-2-fluorotetrahydro-1H-pyrrolizin-7a(5H)-yl)methoxy)-7,8-dihydro-5H-pyrano[4,3-d]pyrimidin-4-yl)-1-(2-fluoroacryloyl)piperazin-2-yl)acetonitrile], the IC50 was 1.7 nM in [1]; 1.2 nM in experiment [2]; 2.4 nM in [3] (setting [9]); 1 to 10 nM in experiment [3] (setting [10]); 2.5 nM in [5]; more than 30000 nM in experiment [6]. The IC50 against KRAS-G12C mutant [7] was found to be 20 nM. Further, the GI50 is 0.1 to 1 nM in the experiment with MIA PaCa-2 cell line (setting [8]); 0.3 nM with MIA PaCa-2 cell line (MiaPaCa2, KRAS G12C, 3D); 2.1 nM in the experiment with NCI-H23 cells; 4.1 nM with SW837 cells; more than 300 nM in the experiment on A549 cells; 0.2 nM with NCI-H358 cells. Also, on KRAS-G12C mutant [4], the “KRAS-G12C molecular weight shift” value is on record as “Yes”.
